For one test, the target named is T1, PIM-2 (Homo sapiens, UniProt Q9P1W9).
T1 construct: histidine tag (N); made in house
Put plainly: PIM-2 biochemical assay (ADP Hunter).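 Further: recombinant N-terminally His-tagged human enzyme, kinase activity quantified by detection of ADP formed as the direct reaction product.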 As to conditions: semi-quantitative class; read-out: PIM2 IC50.

The target of another test is T2, PIM-3 (Homo sapiens, UniProt Q86V86).
T2 construct: purchased Millipore 14-738
Description: PIM-3 biochemical assay (ADP Hunter).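 Further: kinase activity read out as the quantity of ADP generated by the enzyme reaction.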 As to conditions: read-out: PIM3 IC50.

A further test deals with T3, FLT3 (Homo sapiens, UniProt P36888).
T3 sequence (P36888 27-993): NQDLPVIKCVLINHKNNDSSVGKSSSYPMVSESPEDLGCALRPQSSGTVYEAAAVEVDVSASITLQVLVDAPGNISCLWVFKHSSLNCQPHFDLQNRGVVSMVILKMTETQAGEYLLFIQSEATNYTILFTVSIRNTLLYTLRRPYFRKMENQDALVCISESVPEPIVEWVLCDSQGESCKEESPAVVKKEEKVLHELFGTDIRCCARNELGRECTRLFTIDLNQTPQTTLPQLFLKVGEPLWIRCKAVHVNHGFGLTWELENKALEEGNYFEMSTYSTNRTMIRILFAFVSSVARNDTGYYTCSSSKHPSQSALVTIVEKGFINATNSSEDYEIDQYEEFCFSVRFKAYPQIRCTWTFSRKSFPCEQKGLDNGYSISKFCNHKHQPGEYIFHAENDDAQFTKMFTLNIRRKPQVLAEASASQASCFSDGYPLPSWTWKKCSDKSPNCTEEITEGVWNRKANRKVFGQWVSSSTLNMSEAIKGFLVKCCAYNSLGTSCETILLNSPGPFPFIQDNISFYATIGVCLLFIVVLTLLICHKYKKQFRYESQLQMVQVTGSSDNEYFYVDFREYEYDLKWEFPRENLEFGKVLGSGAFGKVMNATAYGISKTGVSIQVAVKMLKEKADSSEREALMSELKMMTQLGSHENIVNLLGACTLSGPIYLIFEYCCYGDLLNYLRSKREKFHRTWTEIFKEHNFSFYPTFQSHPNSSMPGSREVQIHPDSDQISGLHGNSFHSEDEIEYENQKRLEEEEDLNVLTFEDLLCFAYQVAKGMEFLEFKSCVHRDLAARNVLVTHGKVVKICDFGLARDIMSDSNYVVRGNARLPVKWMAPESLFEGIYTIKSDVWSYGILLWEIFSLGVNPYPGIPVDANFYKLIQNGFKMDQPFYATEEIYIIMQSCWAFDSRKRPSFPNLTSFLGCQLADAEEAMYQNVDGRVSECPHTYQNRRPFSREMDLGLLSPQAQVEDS
Put plainly: FLT3 biochemical assay (ADP Hunter).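 Further: FLT3 enzymatic activity quantified through the ADP produced by the kinase reaction, detected with an ADP Hunter readout.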

In another test the target is T4, PIM-1 (Homo sapiens, UniProt P11309).
T4 construct: histidine tag (C); made in house
Put plainly: PIM-1 biochemical assay (ADP Hunter).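 Further: recombinant human PIM-1 carrying a C-terminal His tag, kinase activity quantified via ADP formed as the direct enzymatic product.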 As to conditions: read-out: PIM1 IC50.

Another test concerns tumor cell lines. Put plainly: Combination assay (MTT in vitro cell proliferation, combination index). It counts as cell-based. As to conditions: read-out: Chemo EC50.
The mark [1] stands for this setting: actual IC50 value in parentheses.
Setting [2] is: Homo sapiens, JeKo-1, Jeko-1, Mantle cell lymphoma, chemotherapeutic alone.
Setting [3] is: Homo sapiens, MV4-11, MV4:11, leukemia (AML), chemotherapeutic alone.
The mark [4] stands for this setting: Homo sapiens, SK-MEL19, SKMel19, melanoma, chemotherapeutic alone.

Like-named read-outs stand apart in the source and are kept apart here.

T1 sequence (Q9P1W9 whole entry): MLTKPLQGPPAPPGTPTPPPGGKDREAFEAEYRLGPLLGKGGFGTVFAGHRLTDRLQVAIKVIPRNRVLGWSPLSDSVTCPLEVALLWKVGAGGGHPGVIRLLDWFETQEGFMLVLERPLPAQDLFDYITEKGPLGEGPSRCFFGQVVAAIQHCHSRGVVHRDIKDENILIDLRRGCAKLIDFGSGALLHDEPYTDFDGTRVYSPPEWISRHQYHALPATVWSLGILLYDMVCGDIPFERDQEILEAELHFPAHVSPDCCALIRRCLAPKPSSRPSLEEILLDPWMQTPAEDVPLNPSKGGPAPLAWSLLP
T4 sequence (P11309 whole entry): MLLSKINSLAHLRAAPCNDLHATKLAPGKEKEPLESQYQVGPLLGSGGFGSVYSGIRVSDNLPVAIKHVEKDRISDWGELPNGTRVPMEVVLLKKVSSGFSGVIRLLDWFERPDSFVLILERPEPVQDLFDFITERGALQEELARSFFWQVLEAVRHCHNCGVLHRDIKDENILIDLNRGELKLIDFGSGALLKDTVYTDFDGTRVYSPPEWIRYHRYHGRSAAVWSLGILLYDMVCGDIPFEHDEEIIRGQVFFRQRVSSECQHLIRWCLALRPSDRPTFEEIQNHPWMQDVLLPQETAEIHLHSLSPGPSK

As to `FC(F)(F)Oc1cccc(-n2nnc3ccc(N4CCNCC4)nc32)c1` [2-69], the IC50 at PIM-2 was above 1000 nM; at PIM-3 (semi-quantitative class), 100 to 1000 nM; against FLT3 (semi-quantitative class), above 1000 nM.

On to `FCCN1CCC(CNc2ccc3nnn(-c4cccc(OC(F)(F)F)c4)c3n2)CC1` [2-28], for which the IC50 on PIM-2, on PIM-3 (semi-quantitative class) and against FLT3 (semi-quantitative class) was above 1000 nM throughout.

On to `CN1CCC(CNc2ccc3nnn(-c4cccc(OC(F)(F)F)c4)c3n2)CC1` [2-19, (1-Methyl-piperidin-4-ylmethyl)-[3-(3-trifluoromethoxy-phenyl)-3H-[1,2,3]triazolo[4,5-b]pyridin-5-yl]-amine], for which the IC50 at PIM-2 is above 1000 nM; at PIM-3 (semi-quantitative class), 100 to 1000 nM; on FLT3 (semi-quantitative class), above 1000 nM.

Take `CS(=O)(=O)NC1CCN(c2ccc3nnn(-c4cccc(OC(F)(F)F)c4)c3n2)CC1` [2-80]: the concentration for half-maximal inhibition (IC50) at PIM-1 (semi-quantitative class) was 100 to 1000 nM; at PIM-2, above 1000 nM; on PIM-3 (semi-quantitative class), 100 to 1000 nM; against FLT3 (semi-quantitative class), above 1000 nM.

With `CNC1CCN(c2ccc3nnn(-c4cccc(OC(F)(F)F)c4)c3n2)CC1` [2-44], the IC50 is above 1000 nM at PIM-2, 100 to 1000 nM at PIM-3 (semi-quantitative class) and above 1000 nM against FLT3 (semi-quantitative class).

For the compound `FC(F)(F)Oc1cccc(-n2nnc3ccc(N4CCOC5(CCNCC5)C4)nc32)c1` [2-58], the IC50 on PIM-1 (setting [1]) was 85 nM; at PIM-1 (semi-quantitative class) it was below 100 nM; at PIM-2, above 1000 nM; on PIM-3 (semi-quantitative class), above 1000 nM; at FLT3 (semi-quantitative class), above 1000 nM.

Regarding `O=C(NOC[C@H](O)CO)c1ccc(F)c(F)c1Nc1ccc(I)cc1F` [PD-0325901, (R)—N-(2,3-dihydroxypropoxy)-3,4-difluoro-2-(2-fluoro-4-iodophenylamino)benz-amide, reference compound], in the test with tumor cell lines, the EC50 was determined as 1250 nM.

Consider `CS(=O)(=O)CCNCc1ccc(-c2ccc3ncnc(Nc4ccc(OCc5cccc(F)c5)c(Cl)c4)c3c2)o1` [lapatinib, N-(3-chloro-4-(3-fluorobenzyloxy)phenyl)-6-(5-((2-(methylsulfonyl)ethylamino)-methyl)furan-2-yl)quinazolin-4-amine, reference compound], for which the EC50 with tumor cell lines (HTC116, colon carcinoma, chemotherapeutic alone) stood at 10000 nM; with tumor cell lines (setting [2]), 5000 nM; in the test with tumor cell lines (Homo sapiens, MIA PaCa-2, MiaPaca-2, pancreas, chemotherapeutic alone), 20000 nM; with tumor cell lines (setting [3]) it was 5000 nM; in the test on tumor cell lines (Homo sapiens, NCI-H23, NCIH23, non small cell lung carcinoma, chemotherapeutic alone), 10000 nM.

For `CS(=O)(=O)N1CCC(Nc2ccc3nnn(-c4cccc(OC(F)(F)F)c4)c3n2)CC1` [2-56], the IC50 was 79 nM on PIM-1 (setting [1]); below 100 nM on PIM-1 (semi-quantitative class); 100 to 1000 nM on PIM-2; above 1000 nM at PIM-3 (semi-quantitative class); above 1000 nM against FLT3 (semi-quantitative class).

In the case of `CCN1CCC(CNc2ccc3nnn(-c4cccc(OC(F)(F)F)c4)c3n2)CC1` [2-76], the IC50 is above 1000 nM on PIM-2, 100 to 1000 nM at PIM-3 (semi-quantitative class) and above 1000 nM at FLT3 (semi-quantitative class).

With `COc1cc(NCC2CC3(CCNCC3)C2)nc2c1nnn2-c1cccc(N(C)C)c1` [2-94], the IC50 on PIM-1 (setting [1]) was 9 nM; on PIM-1 (semi-quantitative class), below 100 nM; on PIM-2 it was above 1000 nM; at PIM-3 (setting [1]), 56 nM; on PIM-3 (semi-quantitative class), below 100 nM; against FLT3 (semi-quantitative class), above 1000 nM.

Turning to `O[C@H]1CC[C@@H](CNc2ccc3nnn(-c4cccc(OC(F)(F)F)c4)c3n2)CC1` [2-57], the IC50 on PIM-1 (semi-quantitative class) was below 100 nM; at PIM-2 it was above 1000 nM; on PIM-3 (semi-quantitative class), 100 to 1000 nM; against FLT3 (semi-quantitative class) it was above 1000 nM.

Regarding `FC(F)(F)Oc1cccc(-n2nnc3cc(Cl)c(NC4CC5(CCNCC5)C4)nc32)c1` [2-79], the IC50 on PIM-1 (setting [1]) is 33 nM; at PIM-1 (semi-quantitative class), below 100 nM; at PIM-2, above 1000 nM; on PIM-3 (setting [1]) it was 40 nM; at PIM-3 (semi-quantitative class), below 100 nM; at FLT3 (semi-quantitative class), 100 to 1000 nM.

With `FC(F)(F)Oc1cccc(-n2nnc3ccc(N4CCCC5(CCNCC5)C4)nc32)c1` [2-59], the IC50 at PIM-1 (semi-quantitative class) is below 100 nM; on PIM-2, above 1000 nM; at PIM-3 (semi-quantitative class), 100 to 1000 nM; against FLT3 (semi-quantitative class), above 1000 nM.

Consider `CC(C)N1CCC(CNc2ccc3nnn(-c4cccc(OC(F)(F)F)c4)c3n2)CC1` [2-73], for which the IC50 on PIM-2 was above 1000 nM; on PIM-3 (semi-quantitative class), 100 to 1000 nM; on FLT3 (semi-quantitative class), above 1000 nM.

Turning to `OCCn1cc(-c2ccc3c(c2)CC/C3=N\O)c(-c2ccncc2)n1` [GDC-0879, reference compound], in the test with tumor cell lines (setting [4]), the concentration giving a half-maximal response (EC50) turned out to be 300 nM.

As for `COc1cc(NC2CC3(CCNCC3)C2)nc2c1nnn2-c1cccc(N(C)C)c1` [2-96], the IC50 was 32 nM on PIM-1 (setting [1]); below 100 nM on PIM-1 (semi-quantitative class); above 1000 nM on PIM-2; 68 nM at PIM-3 (setting [1]); below 100 nM at PIM-3 (semi-quantitative class); above 1000 nM on FLT3 (semi-quantitative class).

For the compound `CS(=O)(=O)N1CCN(Cc2cc3nc(-c4cccc5[nH]ncc45)nc(N4CCOCC4)c3s2)CC1` [GDC-0941, reference compound], the EC50 in the test with tumor cell lines (Homo sapiens, A549, A549, lung adenocarcinoma, chemotherapeutic alone) came to 6000 nM; with tumor cell lines (setting [2]) it was 1000 nM; in the test with tumor cell lines (setting [3]), 500 nM; in the test on tumor cell lines (Homo sapiens, NCI-H1975, NCIH1975, non small cell lung carcinoma, chemotherapeutic alone) it was 20000 nM; with tumor cell lines (setting [4]), 500 nM; in the test on tumor cell lines (PC3, prostate cancer, chemotherapeutic alone), 10000 nM.

`Oc1ccc(-n2nnc3ccc(NCc4ccc(F)cc4)nc32)cc1` [2-04, 4-[5-(4-Fluoro-benzylamino)-[1,2,3]triazolo[4,5-b]pyridin-3-yl]-phenol]: the IC50 on PIM-2 is 100 to 1000 nM; on PIM-3 (setting [1]), 51 nM; at PIM-3 (semi-quantitative class), below 100 nM; against FLT3 (semi-quantitative class) it was above 1000 nM.

Consider `OC1CCN(c2ccc3nnn(-c4cccc(OC(F)(F)F)c4)c3n2)CC1` [2-70], for which the IC50 was 100 to 1000 nM at PIM-1 (semi-quantitative class), 100 to 1000 nM at PIM-2, 100 to 1000 nM on PIM-3 (semi-quantitative class) and above 1000 nM against FLT3 (semi-quantitative class).

For `FC(F)(F)Oc1cccc(-n2nnc3cc(Br)c(NCC4CCNCC4)nc32)c1` [2-89], the IC50 is 11 nM on PIM-1 (setting [1]); below 100 nM at PIM-1 (semi-quantitative class); 100 to 1000 nM on PIM-2; 8 nM at PIM-3 (setting [1]); below 100 nM on PIM-3 (semi-quantitative class); 58 nM at FLT3 (setting [1]). At FLT3 (semi-quantitative class), this compound showed a 50% inhibitory concentration (IC50) below 100 nM.

`FC(F)(F)Oc1cccc(-n2nnc3ccc(N4CCC5(CCNCC5)C4)nc32)c1` [2-62]: the IC50 at PIM-2 is above 1000 nM; on PIM-3 (semi-quantitative class), 100 to 1000 nM; against FLT3 (semi-quantitative class), above 1000 nM.

Regarding `FC(F)(F)Oc1cccc(-n2nnc3cc(Cl)c(N4CCCC5(CCCN5)CC4)nc32)c1` (stereo not drawn) [2-78], the IC50 on PIM-1 (semi-quantitative class) is below 100 nM; at PIM-2, above 1000 nM; at PIM-3 (setting [1]), 56 nM; at PIM-3 (semi-quantitative class), below 100 nM; at FLT3 (setting [1]) it was 20 nM; at FLT3 (semi-quantitative class), below 100 nM.

In the case of `Oc1ccc(-n2nnc3ccc(NCC4CCNCC4)nc32)cc1` [2-32], the IC50 on PIM-1 (setting [1]) was 11 nM; at PIM-1 (semi-quantitative class), below 100 nM; at PIM-2 it was above 1000 nM; on PIM-3 (setting [1]), 15 nM; on PIM-3 (semi-quantitative class), below 100 nM; on FLT3 (semi-quantitative class) it was 100 to 1000 nM.

`FC(F)(F)c1cccc(-n2nnc3ccc(N4CCCC5(CCCN5)CC4)nc32)c1` (stereo not drawn) [2-81]: the IC50 at PIM-1 (setting [1]) was 71 nM; on PIM-1 (semi-quantitative class), below 100 nM; on PIM-2 it was above 1000 nM; on PIM-3 (semi-quantitative class), 100 to 1000 nM; at FLT3 (semi-quantitative class) it was 100 to 1000 nM.

On to `FC(F)(F)Oc1cccc(-n2nnc3ccc(N4CCC5(CC4)CNCCO5)nc32)c1` [2-61], for which the IC50 on PIM-1 (setting [1]) is 74 nM; on PIM-1 (semi-quantitative class), below 100 nM; at PIM-2, above 1000 nM; at PIM-3 (semi-quantitative class), above 1000 nM; against FLT3 (semi-quantitative class) it was above 1000 nM.

Turning to `CS(=O)(=O)N1CCN(c2ccc3nnn(-c4cccc(OC(F)(F)F)c4)c3n2)CC1` [2-72], the 50% inhibitory concentration (IC50) was 100 to 1000 nM on PIM-1 (semi-quantitative class), above 1000 nM on PIM-2 and above 1000 nM on PIM-3 (semi-quantitative class).

As to `FC(F)(F)c1cccc(-n2nnc3ccc(NCC4CCNCC4)nc32)c1` [2-63], the IC50 on PIM-2 is above 1000 nM; at PIM-3 (semi-quantitative class), 100 to 1000 nM; at FLT3 (semi-quantitative class), above 1000 nM.

These data come from patent publication US20130065883A1 (Centro Nacional de Investigaceiones Oncologicas (CNIO), priority 2010, published 2013).
